# In publication PMC5951806, “Rapid labelling and covalent inhibition of intracellular native proteins using ligand-directed N-acyl-N-alkyl sulfonamide” (Nature Communications, 2018):
# How the values were obtained:
# [1] = test system: Hsp90-client proteins HER2, cRaf, Akt and pAkt; assay: Western blotting of Hsp90 client proteins
# [2] = test system: Hsp90; settings: read-out: reported IC50; cited from earlier work
# [3] = test system: intracellular Hsp90; settings: SKBR3 cells, pre-treated 1–10 µM for 3 h, washed, then 11 0.5 µM
# [4] = test system: SKBR3 cells; assay: Cell viability assay (WST-8)
smiles,measurement,setting,value
CC(C)NCCCn1c(Sc2cc3c(cc2I)OCO3)nc2c(N)ncnc21 [PU-H71],western blotting bands of Hsp90-client proteins relative to vehicle,"[1]; SKBR3, 1 μM, 24 h without washing",dramatically decreased
same,Hsp90-client protein levels after washout,"[1]; SKBR3, 3 h treatment, washing, further 21 h",did not significantly affect the band intensities
same,blocking of fluorescent labelling of Hsp90 by 11 after washout,[3],failed to block the labelling reaction
same,cytotoxicity / growth inhibitory effect after washout,"[4]; SKBR3, 3 h treatment, washing, further 69 h",almost abolished the cytotoxicity
same,cytotoxicity,"[4]; SKBR3, long-term incubation for 72 h",remarkable cytotoxicity
